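Step 1: Grow cells in 96-well plates. Step 2: Expose to compound for 48 hours at 5 concentrations. Step 3: Interpolate endpoints linearly; if unreached, use highest concentration. At the GI50, growth is halved.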 Calls of active or inactive are those of the source. No stated cut-off is given here; in the data, active = GI50 up to about 1.1 µM and inactive = higher.
Key:
Assay in all cases: NCI-60 cell line screen, 48 h
NCI-H226 = test system: NCI-H226
SK-MEL-5 = test system: SK-MEL-5
HL-60 = test system: HL-60
U-251 = test system: U-251
UO-31 = test system: UO-31
UACC-62 = test system: UACC-62
MDA-MB-435 = test system: MDA-MB-435
SK-MEL-28 = test system: SK-MEL-28
ACHN = test system: ACHN
M14 = test system: M14
IGROV-1 = test system: IGROV-1
LOX IMVI = test system: LOX IMVI
SNB-75 = test system: SNB-75
HOP-92 = test system: HOP-92
COLO 205 = test system: COLO 205
SF-295 = test system: SF-295
NCI-H23 = test system: NCI-H23
MDA-MB-231 = test system: MDA-MB-231
HOP-62 = test system: HOP-62
OVCAR-4 = test system: OVCAR-4

Row | SMILES | GI50 (NCI-H226) | GI50 (SK-MEL-5) | GI50 (HL-60) | GI50 (U-251) | GI50 (UO-31) | GI50 (UACC-62) | GI50 (MDA-MB-435) | GI50 (SK-MEL-28) | GI50 (ACHN) | GI50 (M14) | GI50 (IGROV-1) | GI50 (LOX IMVI) | GI50 (SNB-75) | GI50 (HOP-92) | GI50 (COLO 205) | GI50 (SF-295) | GI50 (NCI-H23) | GI50 (MDA-MB-231) | GI50 (HOP-62) | GI50 (OVCAR-4)
1 | N=c1oc2ccccc2cc1C(=O)NC12CC3CC(CC(C3)C1)C2 | 24.2 µM (inactive) | 21.2 µM (inactive) | 9.16 µM (inactive) | 17.1 µM (inactive) | 0.0887 µM (active) | 15.8 µM (inactive) | 18.6 µM (inactive) | 40.4 µM (inactive) | 6.89 µM (inactive) | 25.7 µM (inactive) | 16.5 µM (inactive) | 13.8 µM (inactive) | 19.3 µM (inactive) | 25.8 µM (inactive) | 14.1 µM (inactive) | 20.6 µM (inactive) | 27.4 µM (inactive) | 20.1 µM (inactive) | 22.6 µM (inactive) | 19.9 µM (inactive)
2 | Cc1cc(=O)n2nc(CSc3nnc(Sc4cc(O)ccc4O)s3)sc2n1 | > 100 µM (inactive) | 64.1 µM (inactive) | 26.4 µM (inactive) | 35.8 µM (inactive) | > 100 µM (inactive) | 50 µM (inactive) | 18.5 µM (inactive) | 54.1 µM (inactive) | > 100 µM (inactive) | 79.1 µM (inactive) | > 100 µM (inactive) | 21.7 µM (inactive) | > 100 µM (inactive) | 35.4 µM (inactive) | 68.5 µM (inactive) | > 100 µM (inactive) | > 100 µM (inactive) | 34.9 µM (inactive) | > 100 µM (inactive) | 54.7 µM (inactive)
3 | Cc1ccc(-n2cc(-c3ccc(Cl)cc3)c(C#N)c2N)cc1 | 12.8 µM (inactive) | 16.1 µM (inactive) | 4.1 µM (inactive) | 14.2 µM (inactive) | 13.2 µM (inactive) | 15.1 µM (inactive) | 17.3 µM (inactive) | 18.1 µM (inactive) | 18.7 µM (inactive) | 15.3 µM (inactive) | 15.9 µM (inactive) | 15 µM (inactive) | 20.3 µM (inactive) | 17 µM (inactive) | 14.1 µM (inactive) | 17.5 µM (inactive) | 15.7 µM (inactive) | 14.7 µM (inactive) | 17.9 µM (inactive) | 14.3 µM (inactive)
4 | N#Cc1c(Cl)cc(C#N)n2c1nc1ccccc12 | 33.7 µM (inactive) | 15.5 µM (inactive) | 1.18 µM (inactive) | 20.8 µM (inactive) | 7.85 µM (inactive) | 18.3 µM (inactive) | 11.7 µM (inactive) | 13.3 µM (inactive) | 15.2 µM (inactive) | 9.71 µM (inactive) | 14.6 µM (inactive) | 2.5 µM (inactive) | 19.2 µM (inactive) | 8.04 µM (inactive) | 4.4 µM (inactive) | 15.3 µM (inactive) | 13.2 µM (inactive) | 8.87 µM (inactive) | 21.6 µM (inactive) | 13.8 µM (inactive)
5 | Cc1cc2c(cc1-c1cc3c(cc1C)C(C(C)C)=C(O)C(=O)/C3=C\NCC1CCCN3CCCCC13)/C(=C/NCC1CCCN3CCCCC13)C(=O)C(O)=C2C(C)C (stereo not given) | 11 µM (inactive) | 6.75 µM (inactive) | 2.97 µM (inactive) | 2.9 µM (inactive) | 3.43 µM (inactive) | 7.78 µM (inactive) | 7.62 µM (inactive) | 12.1 µM (inactive) | 3.81 µM (inactive) | 5.02 µM (inactive) | 5.97 µM (inactive) | 3.35 µM (inactive) | 8.15 µM (inactive) | 15.8 µM (inactive) | 3.47 µM (inactive) | 6.27 µM (inactive) | 6.27 µM (inactive) | 4.16 µM (inactive) | 4.27 µM (inactive) | 6.79 µM (inactive)
6 | Cc1[nH]c(=O)[nH]c(=S)c1C(=O)NC(C)(CO)CO | > 100 µM (inactive) | > 100 µM (inactive) | > 100 µM (inactive) | > 100 µM (inactive) | > 100 µM (inactive) | > 100 µM (inactive) | > 100 µM (inactive) | > 100 µM (inactive) | > 100 µM (inactive) | > 100 µM (inactive) | > 100 µM (inactive) | > 100 µM (inactive) | > 100 µM (inactive) | > 100 µM (inactive) | > 100 µM (inactive) | > 100 µM (inactive) | > 100 µM (inactive) | > 100 µM (inactive) | > 100 µM (inactive) | > 100 µM (inactive)

— ChEMBL document CHEMBL1201862, “PubChem BioAssay data set” (2004)
